{"source": "paper PMC11823679", "about": "“Protamine protects against vancomycin-induced kidney injury” (Antimicrobial Agents and Chemotherapy, 2025)", "key": {"Urinary KIM-1": {"tested_on": "Urinary KIM-1", "test": "Urinary KIM-1 kidney injury in rats given vancomycin and/or protamine", "description": "Male Sprague-Dawley rats (n = 19; age 8–10 weeks; 268–304 g; Envigo, Indianapolis, IN, USA) underwent double jugular catheterization ([33]) (Fig. 3A). Surgery was performed under ketamine (100 mg/kg of body weight) and xyalzine (10 mg/kg of body weight) anesthesia with buprenorphine (0.02 mg/kg of body weight) given post-operatively for pain management. Animals were allowed to recover 4 days before the administration of any drug. Animals were housed in metabolic cages starting 1 day prior to day 0 with access to food and water ad libitum for the duration of the study (Fig. 3B).\nAnimals were divided into three experimental treatment protocols. Using a dedicated jugular vein for dosing, the animals received clinical grade intravenous protamine and/or vancomycin in doses allometrically scaled to humans according to the following protocols: (i) protamine sulfate (1.5 mg/kg of body weight) and vancomycin (150 mg/kg of body weight) (n = 6); (ii) protamine only (1.5 mg/kg of body weight) with saline sham (sham for volume of vancomycin) (n = 7); or (iii) vancomycin only (150 mg/kg of body weight) with saline sham (sham for volume of protamine) (n = 6) ([34][–][36]). Saline sham was given to match the volumes of protamine and vancomycin doses to maintain euvolemia. On day 0, all animals received only iohexol (51.8 mg/day) intravenously to establish baseline GFR measurements. Drugs were administered as described above by treatment protocols to all groups on days 1–4. Infusion times for each of the drugs include (i) protamine sulfate, 5 minutes; (ii) vancomycin and iohexol, 2 minutes; and (iii) saline sham, 5 or 2 minutes depending on what the sham was replacing.\nUrine samples were collected daily, and volumes were measured starting from day 0 to day 4. Samples were centrifuged at 500 g for 10 minutes, and the resulting supernatant was aliquoted (1.5 mL) and stored at −80°C for renal biomarker analysis later.\nUrinary samples were analyzed for KIM-1 using the Milliplex MAP Rat Kidney Toxicity Magnetic Bead Panel 1 (EMD Millipore Corporation, Charles, MO, USA) according to the manufacturer’s directions and as previously described ([34], [36], [37]). Briefly, neat urine aliquots were mixed with monoclonal antibody-coated magnetic microbeads (Bead Panel 1) and run on a 96-well plate, which also included a standard curve. Biomarker data were acquired, and concentrations were analyzed using Belysa Immunoassay Curve-Fitting Software V1 (MilliporeSigma, Darmstadt, Germany). The amount of urinary KIM-1 excreted over the 24-h collection period was obtained by multiplying the urinary concentration by 24-h urinary volume.\nAn omnibus test, i.e., joint tests (multi-degree of freedom) of the interaction and main effects, which is similar to the F test in ANOVA, was used initially (STATA 17.0 BE, StataCorp LLC, College Station, TX, USA). Only models with significant interaction at P < 0.05 were selected for post hoc analysis (i.e., identification of the difference between treatment groups and days). Margins were calculated for a full factorial of the variables, i.e., main effects for each variable and interactions. Referent groups were pre-treatment baseline values and protamine alone as a treatment, except where noted. […] LOWESS graphs were produced in R version 4.2.2 using ggplot2. […] All tests were two-tailed; a P < 0.05 was required for statistical significance. Graphs for cellular studies were generated using GraphPad version 9.3.1 and were fit with a log(inhibitor) vs normalized response function after log transformation."}, "OAT1": {"tested_on": "OAT1", "test": "OAT1 inhibition study (CHOK1 cells, p-aminohippurate substrate)", "type": "cell-based", "conditions": "for Inhibition of OAT1 (in words): p-aminohippurate 10 µM", "description": "(§1) Organic anion transporter (OAT1 and OAT3) and OCT2 inhibition studies with protamine sulfate were performed by Eurofins Scientific (St. Charles, MO, USA) as previously described ([38], [39]). Protamine sulfate was dissolved in DMSO to 1.0E-02 M and tested concurrently with p-aminohippurate 10 µM (substrate) for OAT1, ranitidine 10 µM (substrate) for OAT3, and metformin 100 µM (substrate) for OCT2. A pre-incubation time of 30 minutes was used, followed by 20 minutes of incubation with the substrate. CHOK1 cells were used in OAT1 and 3 experiments, and HEK cells were used in OCT2 experiments. The percentage of inhibition was calculated vs the percentage of control. The IC50 value (concentration causing a half-maximal inhibition of the control value) was determined by nonlinear regression analysis of the concentration-response curve from a Hill equation.\n(§2) No data were excluded as outliers."}, "OAT3": {"tested_on": "OAT3", "test": "OAT3 inhibition study (CHOK1 cells, ranitidine substrate)", "type": "cell-based", "conditions": "for Inhibition of OAT3 (in words): ranitidine 10 µM", "description": "as §1, §2"}, "OCT2": {"tested_on": "OCT2", "test": "OCT2 inhibition study (HEK cells, metformin substrate)", "type": "cell-based", "conditions": "for Inhibition of OCT2 (in words): metformin 100 µM", "description": "as §1, §2"}, "opossum kidney cells": {"tested_on": "opossum kidney cells", "conditions": "cited from earlier work", "excerpt": "Based on chemical structure, we hypothesized that protamine might block megalin and decrease VAN. While relatively little information is available on the megalin-binding capacity of protamine, protamine shares binding sites with heparin (which is the current target for FDA-approved use) and megalin ([30], [31]). […] Megalin antagonists ... || Originally derived from salmon fish sperm (salmine), protamine is a highly positively charged protein consisting of 32 amino acids. Currently, it is widely used as an effective agent to neutralize heparin using electrostatic bonds made between the cationic arginine groups of protamine and the anionic heparin in a 1:1 ratio ([6]). Specifically, protamine shares binding sites with heparin (current target for FDA-approved use) and megalin ([30], [31]). On this note, a clinical limitation for the use of protamine arises for patients who require heparin infusions, such as post-diabetic foot infecti ..."}, "[1]": {"conditions": "in vivo; cited from earlier work", "description": "Additional work i ... || Despite the promise of protamine as a new treatment approach, this study is subject to several limitations. First, our study was performed in rats. While the rat model has shown strong relevance to the human condition ([14]) with respect to VAN, clinical trials are necessary to confirm the effect. Second, protamine delayed kidney injury by 1–3 days; however, a multi-pronged approach may be needed to fully suppress injury in vancomycin therapy that exceeds 2 days. Third, as noted above, protamine is not a viable therapeutic for patients who require heparin. Fourth, protamine itself is associate ..."}, "[2]": {"conditions": "CHOK1 cells, listed as protamine"}}, "note": "Entries after “also recorded” stand apart in the source; their conditions may differ.", "data": [{"substance": "Protamine", "values": [{"measurement": "Protective effect against vancomycin-associated nephrotoxicity (in words)", "setting": "Urinary KIM-1; addition of protamine to vancomycin", "value": "provides a protective effect against vancomycin-associated nephrotoxicity"}, {"measurement": "Delay of vancomycin-induced kidney injury as defined by urinary KIM-1", "setting": "Urinary KIM-1; protamine added to vancomycin therapy", "value": "1 to 3", "unit": "days"}, {"measurement": "KIM-1 change from baseline of day 1 (in words)", "setting": "Urinary KIM-1; rat, in vivo", "value": "did not have a KIM-1 increase over the 4 days"}, {"measurement": "KIM-1 compared to protamine alone (in words)", "setting": "Urinary KIM-1; rat, in vivo", "value": "did not experience this increase on day 2"}, {"measurement": "KIM-1 compared to vancomycin alone (in words)", "setting": "Urinary KIM-1; rat, in vivo", "value": "numerically similar to animals that received vancomycin alone"}, {"measurement": "Injury prevention (in words)", "setting": "Urinary KIM-1; urinary KIM-1, protamine with vancomycin", "value": "a full day of injury prevention"}, {"measurement": "Inhibition of OAT1 (in words)", "setting": "OAT1; CHOK1 cells", "value": "does not appear to have significant inhibition on OAT1, OAT3, or OCT2"}, {"measurement": "IC50", "setting": "OAT1; CHOK1 cells, p-aminohippurate 10 µM substrate, pre-incubation 30 minutes, 20 minutes with substrate, protamine sulfate in DMSO, Eurofins", "value": 100, "unit": "µM"}, {"measurement": "Inhibition of OAT1 (in words)", "setting": "OAT1; [2]", "value": "No substantial inhibition; also recorded: does not have a significant inhibition on OAT1, OAT3, or OCT2 except at extremely high concentrations; also recorded: little to no inhibition"}, {"measurement": "IC50 ratio protamine vs probenecid", "setting": "OAT1; OAT1", "value": 62.5, "unit": "times higher"}, {"measurement": "Inhibition of OAT-1", "setting": "OAT1; at 0.1 mM protamine, Fig. 6", "value": "< 50", "unit": "%"}, {"measurement": "Inhibition of OAT3 (in words)", "setting": "OAT3; CHOK1 cells", "value": "does not appear to have significant inhibition on OAT1, OAT3, or OCT2"}, {"measurement": "IC50", "setting": "OAT3; CHOK1 cells, ranitidine 10 µM substrate, pre-incubation 30 minutes, 20 minutes with substrate, protamine sulfate in DMSO, Eurofins", "value": 100, "unit": "µM"}, {"measurement": "Inhibition of OAT3 (in words)", "setting": "OAT3; [2]", "value": "No substantial inhibition; also recorded: does not have a significant inhibition on OAT1, OAT3, or OCT2 except at extremely high concentrations; also recorded: little to no inhibition"}, {"measurement": "IC50 ratio protamine vs probenecid", "setting": "OAT3; OAT3", "value": 58.8, "unit": "times higher"}, {"measurement": "Inhibition of OAT-3", "setting": "OAT3; at 0.1 mM protamine, Fig. 6", "value": "< 50", "unit": "%"}, {"measurement": "Inhibition of OCT2 (in words)", "setting": "OCT2; HEK cells", "value": "does not appear to have significant inhibition on OAT1, OAT3, or OCT2"}, {"measurement": "IC50", "setting": "OCT2; HEK cells, metformin 100 µM substrate, pre-incubation 30 minutes, 20 minutes with substrate, protamine sulfate in DMSO, Eurofins", "value": 43, "unit": "µM"}, {"measurement": "Inhibition of OCT2 (in words)", "setting": "OCT2; HEK cells, listed as protamine", "value": "No substantial inhibition; also recorded: does not have a significant inhibition on OAT1, OAT3, or OCT2 except at extremely high concentrations; also recorded: minor inhibition"}, {"measurement": "IC50 ratio protamine vs verapamil", "setting": "OCT2; OCT2", "value": 5.2, "unit": "times higher"}, {"measurement": "Inhibition of OCT-2", "setting": "OCT2; at similar concentrations (to 0.1 mM) of protamine, Fig. 6", "value": "at least 50%"}, {"measurement": "Entry into kidney epithelial cells (in words)", "setting": "opossum kidney cells", "value": "enters kidney epithelial cells and localizes in the cytoplasm via receptor-mediated endocytosis"}, {"measurement": "Inhibition of gentamicin uptake (in words)", "setting": "opossum kidney cells; cultured opossum kidney cells that expressed megalin and cubilin, ref Nagai and colleagues ([32])", "value": "inhibited the uptake of gentamicin"}, {"measurement": "Prevention of gentamicin accumulation (in words)", "setting": "opossum kidney cells; kidney epithelial cells", "value": "has demonstrated prevention of gentamicin accumulation"}, {"measurement": "Safety liabilities (in words)", "setting": "[1]", "value": "severe hypotension and anaphylactoid-like reactions"}, {"measurement": "Toxicities (in words)", "setting": "[1]", "value": "cardiopulmonary dysfunction and shock as well as antibody-mediated hypersensitivity reactions"}]}]}
